From ChEMBL document CHEMBL5442219

How the values were obtained:
Conditions in all cases: Compound concentration 10 µM
[1] = molecular target: T1, Alpha-2A adrenergic receptor (Homo sapiens) (UniProt P08913)
T1 sequence (whole entry): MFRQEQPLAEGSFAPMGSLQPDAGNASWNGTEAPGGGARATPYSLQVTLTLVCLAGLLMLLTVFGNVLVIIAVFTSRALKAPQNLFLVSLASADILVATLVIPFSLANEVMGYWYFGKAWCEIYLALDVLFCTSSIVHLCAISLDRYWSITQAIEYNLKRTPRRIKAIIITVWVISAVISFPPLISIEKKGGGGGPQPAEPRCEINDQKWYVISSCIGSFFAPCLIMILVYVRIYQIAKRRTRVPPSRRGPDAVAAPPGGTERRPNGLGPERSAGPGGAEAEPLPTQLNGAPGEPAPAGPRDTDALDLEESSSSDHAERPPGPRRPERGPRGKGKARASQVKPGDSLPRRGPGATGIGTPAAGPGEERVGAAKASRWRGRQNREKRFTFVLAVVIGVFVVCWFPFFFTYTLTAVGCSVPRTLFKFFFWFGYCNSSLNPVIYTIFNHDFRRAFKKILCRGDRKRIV

[2] = molecular target: T2, Alpha-2B adrenergic receptor (Homo sapiens) (UniProt P18089)
T2 sequence (whole entry): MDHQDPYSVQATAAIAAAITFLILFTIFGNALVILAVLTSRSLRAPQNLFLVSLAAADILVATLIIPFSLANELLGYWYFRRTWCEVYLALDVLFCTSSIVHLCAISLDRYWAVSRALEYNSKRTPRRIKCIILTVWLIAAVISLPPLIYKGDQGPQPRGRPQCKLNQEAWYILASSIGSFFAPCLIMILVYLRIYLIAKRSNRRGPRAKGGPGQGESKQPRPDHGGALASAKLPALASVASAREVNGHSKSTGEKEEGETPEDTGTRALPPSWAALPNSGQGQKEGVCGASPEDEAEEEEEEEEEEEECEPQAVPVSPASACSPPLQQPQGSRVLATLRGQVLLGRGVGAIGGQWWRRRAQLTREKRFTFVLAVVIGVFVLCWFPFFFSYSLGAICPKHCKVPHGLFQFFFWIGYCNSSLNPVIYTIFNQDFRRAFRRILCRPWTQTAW

[3] = molecular target: T3, Alpha-2C adrenergic receptor (Homo sapiens) (UniProt P18825)
T3 sequence (whole entry): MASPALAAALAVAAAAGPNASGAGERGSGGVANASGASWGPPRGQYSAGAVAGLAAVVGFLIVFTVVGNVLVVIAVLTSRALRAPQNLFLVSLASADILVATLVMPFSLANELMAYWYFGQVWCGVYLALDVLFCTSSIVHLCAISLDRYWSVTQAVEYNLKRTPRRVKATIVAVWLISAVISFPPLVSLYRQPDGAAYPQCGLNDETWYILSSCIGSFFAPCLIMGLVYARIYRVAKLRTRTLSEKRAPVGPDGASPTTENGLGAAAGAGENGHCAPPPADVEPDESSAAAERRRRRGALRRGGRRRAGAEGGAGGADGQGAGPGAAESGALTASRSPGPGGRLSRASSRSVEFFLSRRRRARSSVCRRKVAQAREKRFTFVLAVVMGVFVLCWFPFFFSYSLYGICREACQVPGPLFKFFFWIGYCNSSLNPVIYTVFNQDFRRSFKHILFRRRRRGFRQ

[4] = molecular target: Beta-2 adrenergic receptor (Homo sapiens) (UniProt P07550)
[5] = molecular target: T4, Muscarinic acetylcholine receptor M1 (Homo sapiens) (UniProt P11229)
T4 sequence (whole entry): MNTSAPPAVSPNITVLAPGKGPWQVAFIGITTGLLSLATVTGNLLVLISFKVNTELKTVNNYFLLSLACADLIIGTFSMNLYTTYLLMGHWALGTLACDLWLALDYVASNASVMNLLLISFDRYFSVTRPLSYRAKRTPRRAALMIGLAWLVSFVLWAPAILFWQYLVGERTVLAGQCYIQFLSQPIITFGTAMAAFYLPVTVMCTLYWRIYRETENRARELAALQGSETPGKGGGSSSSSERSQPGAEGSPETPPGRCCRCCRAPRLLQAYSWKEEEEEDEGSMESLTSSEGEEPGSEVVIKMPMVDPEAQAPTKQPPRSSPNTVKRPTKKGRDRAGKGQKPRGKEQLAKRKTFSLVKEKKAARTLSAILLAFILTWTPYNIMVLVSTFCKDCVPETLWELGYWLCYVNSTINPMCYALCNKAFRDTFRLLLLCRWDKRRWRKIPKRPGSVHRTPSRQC

[6] = molecular target: D(2) dopamine receptor (Homo sapiens) (UniProt P14416)
[7] = molecular target: T5, D(4) dopamine receptor (Homo sapiens) (UniProt P21917)
T5 sequence (whole entry): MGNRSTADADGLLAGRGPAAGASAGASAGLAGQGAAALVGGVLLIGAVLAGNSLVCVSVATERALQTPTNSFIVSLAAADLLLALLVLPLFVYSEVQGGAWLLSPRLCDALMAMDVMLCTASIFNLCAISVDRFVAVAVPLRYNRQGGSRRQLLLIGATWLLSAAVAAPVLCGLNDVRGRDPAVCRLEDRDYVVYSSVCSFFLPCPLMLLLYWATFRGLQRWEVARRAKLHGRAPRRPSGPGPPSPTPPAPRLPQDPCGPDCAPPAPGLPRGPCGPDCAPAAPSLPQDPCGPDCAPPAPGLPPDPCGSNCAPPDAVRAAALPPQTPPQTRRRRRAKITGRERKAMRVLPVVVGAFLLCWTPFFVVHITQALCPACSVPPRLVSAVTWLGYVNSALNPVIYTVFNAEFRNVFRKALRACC

[8] = molecular target: Histamine H1 receptor (Homo sapiens) (UniProt P35367)
[9] = molecular target: Histamine H3 receptor (Homo sapiens) (UniProt Q9Y5N1)
[10] = molecular target: Histamine H4 receptor (Homo sapiens) (UniProt Q9H3N8)
[11] = molecular target: 5-hydroxytryptamine receptor 1B (Homo sapiens) (UniProt P28222)
[12] = molecular target: 5-hydroxytryptamine receptor 1D (Homo sapiens) (UniProt P28221)
[13] = molecular target: 5-hydroxytryptamine receptor 1E (Homo sapiens) (UniProt P28566)
[14] = molecular target: 5-hydroxytryptamine receptor 2B (Homo sapiens) (UniProt P41595)
[15] = molecular target: 5-hydroxytryptamine receptor 7 (Homo sapiens) (UniProt P34969)
[16] = molecular target: Kappa-type opioid receptor (Homo sapiens) (UniProt P41145)
[17] = molecular target: Mu-type opioid receptor (Homo sapiens) (UniProt P35372)
[18] = molecular target: Sigma non-opioid intracellular receptor 1 (Homo sapiens) (UniProt Q99720)
[19] = molecular target: Sodium-dependent dopamine transporter (Homo sapiens) (UniProt Q01959)
[20] = molecular target: Sigma intracellular receptor 2 (Homo sapiens) (UniProt Q5BJF2)
[21] = molecular target: Translocator protein (Homo sapiens) (UniProt P30536)
[22] = molecular target: T6, Muscarinic acetylcholine receptor M4 (Homo sapiens) (UniProt P08173)
T6 sequence (whole entry): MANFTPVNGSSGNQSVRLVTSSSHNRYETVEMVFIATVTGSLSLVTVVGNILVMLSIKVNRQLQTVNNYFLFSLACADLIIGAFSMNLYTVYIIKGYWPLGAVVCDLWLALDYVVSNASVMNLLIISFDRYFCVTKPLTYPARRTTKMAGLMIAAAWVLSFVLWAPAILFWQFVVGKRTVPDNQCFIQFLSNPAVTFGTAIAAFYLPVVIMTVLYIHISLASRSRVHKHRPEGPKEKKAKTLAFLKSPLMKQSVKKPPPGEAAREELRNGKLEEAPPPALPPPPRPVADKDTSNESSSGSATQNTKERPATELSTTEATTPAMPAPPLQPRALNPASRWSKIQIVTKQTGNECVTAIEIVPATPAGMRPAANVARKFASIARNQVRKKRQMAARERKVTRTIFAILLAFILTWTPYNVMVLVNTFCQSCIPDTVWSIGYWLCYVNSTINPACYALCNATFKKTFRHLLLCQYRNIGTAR

[23] = molecular target: D(1A) dopamine receptor (Homo sapiens) (UniProt P21728)
[24] = molecular target: D(3) dopamine receptor (Homo sapiens) (UniProt P35462)
[25] = molecular target: T7, 5-hydroxytryptamine receptor 1A (Homo sapiens) (UniProt P08908)
T7 sequence (whole entry): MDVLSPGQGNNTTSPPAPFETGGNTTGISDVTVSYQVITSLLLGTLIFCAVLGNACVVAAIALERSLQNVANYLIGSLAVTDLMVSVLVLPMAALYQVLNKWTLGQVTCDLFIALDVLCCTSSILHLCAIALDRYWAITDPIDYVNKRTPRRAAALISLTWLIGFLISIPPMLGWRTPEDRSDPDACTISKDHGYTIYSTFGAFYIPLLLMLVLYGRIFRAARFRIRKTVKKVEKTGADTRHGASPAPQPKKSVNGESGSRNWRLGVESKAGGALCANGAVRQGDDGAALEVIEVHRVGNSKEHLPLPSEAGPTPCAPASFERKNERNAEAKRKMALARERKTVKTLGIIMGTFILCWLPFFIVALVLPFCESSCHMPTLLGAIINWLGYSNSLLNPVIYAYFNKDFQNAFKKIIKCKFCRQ

[26] = molecular target: 5-hydroxytryptamine receptor 2A (Homo sapiens) (UniProt P28223)
[27] = molecular target: T8, 5-hydroxytryptamine receptor 3A (Homo sapiens) (UniProt P46098)
T8 sequence (whole entry): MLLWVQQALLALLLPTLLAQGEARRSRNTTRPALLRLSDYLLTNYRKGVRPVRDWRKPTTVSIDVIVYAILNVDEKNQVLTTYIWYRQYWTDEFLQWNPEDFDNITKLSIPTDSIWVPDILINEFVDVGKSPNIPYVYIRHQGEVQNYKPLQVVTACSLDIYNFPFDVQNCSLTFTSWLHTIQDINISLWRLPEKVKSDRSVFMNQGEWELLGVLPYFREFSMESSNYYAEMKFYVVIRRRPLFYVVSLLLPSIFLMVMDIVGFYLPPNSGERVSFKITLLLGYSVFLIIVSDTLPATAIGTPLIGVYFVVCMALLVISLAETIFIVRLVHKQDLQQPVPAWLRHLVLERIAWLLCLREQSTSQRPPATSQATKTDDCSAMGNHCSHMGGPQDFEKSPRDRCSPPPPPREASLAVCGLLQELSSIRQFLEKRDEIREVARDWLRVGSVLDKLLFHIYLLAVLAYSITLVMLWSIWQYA

[28] = molecular target: Sodium-dependent serotonin transporter (Homo sapiens) (UniProt P31645)
[29] = molecular target: Beta-3 adrenergic receptor (Homo sapiens) (UniProt P13945)
[30] = molecular target: Histamine H2 receptor (Homo sapiens) (UniProt P25021)

Chain of Kappa-type opioid receptor (Homo sapiens) (P41145 whole entry): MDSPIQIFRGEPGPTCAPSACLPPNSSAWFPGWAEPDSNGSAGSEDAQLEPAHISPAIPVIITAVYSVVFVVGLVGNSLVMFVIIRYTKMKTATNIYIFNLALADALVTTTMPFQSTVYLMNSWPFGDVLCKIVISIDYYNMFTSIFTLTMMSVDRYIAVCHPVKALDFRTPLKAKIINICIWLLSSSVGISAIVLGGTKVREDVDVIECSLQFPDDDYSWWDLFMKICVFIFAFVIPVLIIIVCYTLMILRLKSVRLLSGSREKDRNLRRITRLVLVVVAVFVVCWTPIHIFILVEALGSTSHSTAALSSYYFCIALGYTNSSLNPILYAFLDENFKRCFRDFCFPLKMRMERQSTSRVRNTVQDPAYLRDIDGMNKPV
Chain of Mu-type opioid receptor (Homo sapiens) (P35372 whole entry): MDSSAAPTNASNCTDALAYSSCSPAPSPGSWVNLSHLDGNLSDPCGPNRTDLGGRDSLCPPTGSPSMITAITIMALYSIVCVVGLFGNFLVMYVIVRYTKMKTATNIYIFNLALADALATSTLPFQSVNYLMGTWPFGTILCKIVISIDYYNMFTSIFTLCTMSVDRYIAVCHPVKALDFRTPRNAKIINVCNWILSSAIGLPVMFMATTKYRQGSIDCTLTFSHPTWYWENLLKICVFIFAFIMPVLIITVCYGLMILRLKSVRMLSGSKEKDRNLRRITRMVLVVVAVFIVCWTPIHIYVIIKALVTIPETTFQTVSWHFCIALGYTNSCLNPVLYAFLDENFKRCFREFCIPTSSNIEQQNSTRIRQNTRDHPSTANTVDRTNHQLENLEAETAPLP
Chain of 5-hydroxytryptamine receptor 1E (Homo sapiens) (P28566 whole entry): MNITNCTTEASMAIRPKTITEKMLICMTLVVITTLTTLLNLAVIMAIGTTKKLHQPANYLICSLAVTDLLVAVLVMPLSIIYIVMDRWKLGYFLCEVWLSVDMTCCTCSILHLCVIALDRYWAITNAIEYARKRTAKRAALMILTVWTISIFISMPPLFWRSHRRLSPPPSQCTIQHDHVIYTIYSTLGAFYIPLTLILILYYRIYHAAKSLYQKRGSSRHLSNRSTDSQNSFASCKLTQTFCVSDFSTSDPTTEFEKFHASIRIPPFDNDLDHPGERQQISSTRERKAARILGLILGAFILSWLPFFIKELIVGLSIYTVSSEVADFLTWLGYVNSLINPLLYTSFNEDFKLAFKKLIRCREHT
Chain of Histamine H3 receptor (Homo sapiens) (Q9Y5N1 whole entry): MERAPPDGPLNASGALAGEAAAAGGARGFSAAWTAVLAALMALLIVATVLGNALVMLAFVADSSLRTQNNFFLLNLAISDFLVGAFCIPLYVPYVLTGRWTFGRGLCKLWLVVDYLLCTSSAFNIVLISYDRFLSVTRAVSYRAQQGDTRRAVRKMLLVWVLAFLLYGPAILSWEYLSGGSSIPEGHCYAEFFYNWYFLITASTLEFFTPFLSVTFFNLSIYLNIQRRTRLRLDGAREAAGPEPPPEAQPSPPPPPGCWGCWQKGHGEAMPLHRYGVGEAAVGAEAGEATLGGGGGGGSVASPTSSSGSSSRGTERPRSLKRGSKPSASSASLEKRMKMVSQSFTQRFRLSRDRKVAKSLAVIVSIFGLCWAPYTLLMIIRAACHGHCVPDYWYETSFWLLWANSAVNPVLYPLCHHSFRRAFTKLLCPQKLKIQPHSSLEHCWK
Chain of D(2) dopamine receptor (Homo sapiens) (P14416 whole entry): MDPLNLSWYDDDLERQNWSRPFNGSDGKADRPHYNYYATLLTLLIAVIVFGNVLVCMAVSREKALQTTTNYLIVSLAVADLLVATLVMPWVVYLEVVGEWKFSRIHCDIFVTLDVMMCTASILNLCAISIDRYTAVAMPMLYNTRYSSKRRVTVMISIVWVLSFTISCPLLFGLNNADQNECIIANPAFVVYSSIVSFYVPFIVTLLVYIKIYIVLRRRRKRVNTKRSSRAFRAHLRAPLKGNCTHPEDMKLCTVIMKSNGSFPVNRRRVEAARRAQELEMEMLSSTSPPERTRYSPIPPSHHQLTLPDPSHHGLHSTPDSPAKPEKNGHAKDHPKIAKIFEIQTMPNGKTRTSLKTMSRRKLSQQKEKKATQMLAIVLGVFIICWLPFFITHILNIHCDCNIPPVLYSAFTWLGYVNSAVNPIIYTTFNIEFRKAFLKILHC
Chain of 5-hydroxytryptamine receptor 1B (Homo sapiens) (P28222 whole entry): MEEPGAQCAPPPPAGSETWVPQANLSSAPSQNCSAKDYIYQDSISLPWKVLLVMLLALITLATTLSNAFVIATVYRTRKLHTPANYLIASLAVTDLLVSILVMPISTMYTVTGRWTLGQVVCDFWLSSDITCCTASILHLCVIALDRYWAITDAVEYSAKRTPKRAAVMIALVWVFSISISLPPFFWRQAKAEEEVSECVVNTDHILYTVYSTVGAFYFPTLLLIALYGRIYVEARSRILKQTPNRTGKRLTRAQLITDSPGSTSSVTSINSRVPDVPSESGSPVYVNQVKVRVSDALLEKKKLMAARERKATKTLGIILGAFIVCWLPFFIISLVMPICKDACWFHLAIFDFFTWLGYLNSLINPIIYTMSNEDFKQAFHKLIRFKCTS
Chain of Histamine H4 receptor (Homo sapiens) (Q9H3N8 whole entry): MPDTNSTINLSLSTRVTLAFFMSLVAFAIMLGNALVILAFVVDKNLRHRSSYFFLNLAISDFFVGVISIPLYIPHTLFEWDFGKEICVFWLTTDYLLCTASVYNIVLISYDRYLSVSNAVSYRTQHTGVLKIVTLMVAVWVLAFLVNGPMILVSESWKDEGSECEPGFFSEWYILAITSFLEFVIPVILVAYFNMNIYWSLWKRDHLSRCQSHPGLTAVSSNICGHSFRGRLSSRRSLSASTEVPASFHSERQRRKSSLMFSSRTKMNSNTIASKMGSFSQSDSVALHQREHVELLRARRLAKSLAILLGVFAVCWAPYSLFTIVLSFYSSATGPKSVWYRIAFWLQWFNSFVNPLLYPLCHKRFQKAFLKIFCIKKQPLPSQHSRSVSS
Chain of Sigma non-opioid intracellular receptor 1 (Homo sapiens) (Q99720 whole entry): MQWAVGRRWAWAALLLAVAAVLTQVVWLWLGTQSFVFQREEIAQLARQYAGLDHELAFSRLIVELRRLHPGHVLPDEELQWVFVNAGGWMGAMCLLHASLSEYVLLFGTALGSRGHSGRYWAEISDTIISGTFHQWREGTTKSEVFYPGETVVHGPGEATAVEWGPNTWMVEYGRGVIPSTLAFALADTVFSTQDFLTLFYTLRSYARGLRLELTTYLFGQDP
Chain of Histamine H1 receptor (Homo sapiens) (P35367 whole entry): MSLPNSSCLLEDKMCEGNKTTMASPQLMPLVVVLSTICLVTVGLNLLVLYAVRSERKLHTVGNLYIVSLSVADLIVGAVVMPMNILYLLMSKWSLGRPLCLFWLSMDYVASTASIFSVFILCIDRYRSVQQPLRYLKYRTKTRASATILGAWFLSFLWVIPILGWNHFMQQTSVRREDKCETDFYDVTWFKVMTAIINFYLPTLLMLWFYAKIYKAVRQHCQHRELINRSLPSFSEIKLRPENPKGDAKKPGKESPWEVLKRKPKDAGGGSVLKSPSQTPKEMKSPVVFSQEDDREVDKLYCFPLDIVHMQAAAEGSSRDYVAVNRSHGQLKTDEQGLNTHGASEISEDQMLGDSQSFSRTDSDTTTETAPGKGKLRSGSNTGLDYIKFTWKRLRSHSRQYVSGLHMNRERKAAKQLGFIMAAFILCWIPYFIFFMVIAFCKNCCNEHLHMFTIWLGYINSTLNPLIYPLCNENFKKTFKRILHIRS
Chain of Sigma intracellular receptor 2 (Homo sapiens) (Q5BJF2 whole entry): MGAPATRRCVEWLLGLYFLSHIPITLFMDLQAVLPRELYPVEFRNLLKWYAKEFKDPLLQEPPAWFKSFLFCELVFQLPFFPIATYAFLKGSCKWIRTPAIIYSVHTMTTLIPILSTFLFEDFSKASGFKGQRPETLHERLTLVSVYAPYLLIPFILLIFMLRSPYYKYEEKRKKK
Chain of Beta-2 adrenergic receptor (Homo sapiens) (P07550 whole entry, looked up): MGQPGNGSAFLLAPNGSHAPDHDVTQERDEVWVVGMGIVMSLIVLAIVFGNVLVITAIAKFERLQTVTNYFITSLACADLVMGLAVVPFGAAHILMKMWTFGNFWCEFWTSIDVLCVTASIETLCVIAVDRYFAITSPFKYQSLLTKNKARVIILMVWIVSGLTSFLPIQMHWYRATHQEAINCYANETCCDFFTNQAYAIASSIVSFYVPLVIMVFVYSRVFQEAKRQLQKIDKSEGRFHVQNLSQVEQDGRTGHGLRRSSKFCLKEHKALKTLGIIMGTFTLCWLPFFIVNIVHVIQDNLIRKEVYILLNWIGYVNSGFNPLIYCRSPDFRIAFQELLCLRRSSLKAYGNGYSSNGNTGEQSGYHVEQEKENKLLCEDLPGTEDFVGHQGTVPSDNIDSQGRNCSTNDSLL
Chain of 5-hydroxytryptamine receptor 2B (Homo sapiens) (P41595 whole entry): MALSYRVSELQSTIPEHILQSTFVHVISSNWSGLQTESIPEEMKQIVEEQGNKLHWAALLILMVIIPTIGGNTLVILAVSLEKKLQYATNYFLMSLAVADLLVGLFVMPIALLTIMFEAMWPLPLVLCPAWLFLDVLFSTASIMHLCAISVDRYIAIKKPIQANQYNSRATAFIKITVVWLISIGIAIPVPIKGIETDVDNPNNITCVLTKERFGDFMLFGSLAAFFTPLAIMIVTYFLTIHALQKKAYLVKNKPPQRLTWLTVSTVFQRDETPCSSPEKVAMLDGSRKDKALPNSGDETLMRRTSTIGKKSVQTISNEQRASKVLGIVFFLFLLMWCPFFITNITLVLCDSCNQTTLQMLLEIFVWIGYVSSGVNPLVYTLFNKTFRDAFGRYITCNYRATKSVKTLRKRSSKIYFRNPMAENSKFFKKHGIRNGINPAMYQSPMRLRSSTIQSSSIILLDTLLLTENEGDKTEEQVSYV
Chain of Translocator protein (Homo sapiens) (P30536 whole entry): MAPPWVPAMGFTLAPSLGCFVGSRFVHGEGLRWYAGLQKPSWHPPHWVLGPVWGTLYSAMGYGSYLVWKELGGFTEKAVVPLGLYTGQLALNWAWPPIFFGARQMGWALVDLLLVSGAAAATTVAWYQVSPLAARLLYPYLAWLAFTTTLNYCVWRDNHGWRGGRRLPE

| SMILES | inhibition [1] | inhibition [4] | inhibition [6] | inhibition [7] | inhibition [8] | inhibition [9] | inhibition [10] | inhibition [11] | inhibition [13] | inhibition [14] | inhibition [15] | inhibition [16] | inhibition [17] | inhibition [18] | inhibition [19] | inhibition [20] | inhibition [21] | also measured |
| --- | --- | --- | --- | --- | --- | --- | --- | --- | --- | --- | --- | --- | --- | --- | --- | --- | --- | --- |
| O=C(O)c1n[nH]c2c1C[C@H]1C[C@@H]21 | 8.74% | 3.75% | -9.71% | -4.86% | -7.37% | -7.4% | 10% | 13% | 5.8% | 15.1% | -5.09% | -6.22% | -4.24% | 14.3% | 1.37% | 11.9% | 4.46% | inhibition [2]: 3.24%; inhibition [3]: 1.98%; inhibition [5]: -7.24%; inhibition [12]: 17.2% |
| Cc1c(C(=O)NC2CCCCC2)sc2nc3ccc(N)cc3n12 | -6.44% | 5.51% | -1.44% | 38.1% | 11.7% | 4.62% | 1.51% | 27.8% | 5.97% | 53.3% | 6.55% | 17.5% | 8.54% | 62.8% | 17.7% | 10.3% | -2.67% | inhibition [22]: -5.41%; inhibition [23]: 7.6%; inhibition [24]: 36.7%; inhibition [25]: 33.1%; inhibition [26]: 10.5%; inhibition [27]: -6.74%; inhibition [28]: 7.26%; inhibition [29]: -9.6%; inhibition [30]: 21.4% |
